Results from ChEMBL document CHEMBL4680293, “Tubulin inhibitory activity of a novel colchicine-binding compounds based on a dinaphthospiropyranran scaffold” (Bioorg Med Chem, 2021).
The source made the active and inactive calls. The calls are words filed in the database; no cut-off is given here.

How the values were obtained:
[1] = system: HCT-116; experiment: Anti-cancer activity against human HCT-116 cells assessed as cell growth inhibition measured after 48 hrs by SRB method; type: functional, cell-based
[2] = system: OVCAR-8; experiment: Anti-cancer activity against human OVCAR-8 cells assessed as cell growth inhibition measured after 48 hrs by SRB method; type: functional, cell-based
[3] = system: NCI-H226; experiment: Anti-cancer activity against human NCI-H226 cells assessed as cell growth inhibition measured after 48 hrs by SRB method; type: functional, cell-based
[4] = Anti-cancer activity against human non-small lung cancer cells assessed as cell growth inhibition measured after 48 hrs by SRB method; type: functional; settings: Non-small cell lung cancer cell line
[5] = system: LOX IMVI; experiment: Anti-cancer activity against human LOX IMVI cells assessed as cell growth inhibition measured after 48 hrs by SRB method; type: functional, cell-based
[6] = system: SNB-75; experiment: Anti-cancer activity against human SNB-75 cells assessed as cell growth inhibition measured after 48 hrs by SRB method; type: functional, cell-based
[7] = system: SK-MEL-28; experiment: Anti-cancer activity against human SK-MEL-28 cells assessed as cell growth inhibition measured after 48 hrs by SRB method; type: functional, cell-based
[8] = system: CCRF-CEM; experiment: Anti-cancer activity against human CCRF-CEM cells assessed as cell growth inhibition measured after 48 hrs by SRB assay; type: functional, cell-based
[9] = system: IGROV-1; experiment: Anti-cancer activity against human IGROV1 cells assessed as cell growth inhibition measured after 48 hrs by SRB method; type: functional, cell-based
[10] = system: T47D; experiment: Anti-cancer activity against human T47D cells assessed as cell growth inhibition measured after 48 hrs by SRB method; type: functional, cell-based
[11] = Anti-cancer activity against human melanoma cells assessed as cell growth inhibition measured after 48 hrs by SRB method; type: functional; settings: Melanoma cell line
[12] = system: NCI-H522; experiment: Anti-cancer activity against human NCI-H522 cells assessed as cell growth inhibition measured after 48 hrs by SRB method; type: functional, cell-based
[13] = system: NCI-H322M; experiment: Anti-cancer activity against human NCI-H322M cells assessed as cell growth inhibition measured after 48 hrs by SRB method; type: functional, cell-based
[14] = system: RPMI-8226; experiment: Anti-cancer activity against human RPMI-8226 cells assessed as cell growth inhibition measured after 48 hrs by SRB method; type: functional, cell-based
[15] = time 48 hrs, read-out: LC50 (the source's name)

For C1=C2CNCC3=Cc4c(ccc5ccccc45)OC23Oc2ccc3ccccc3c21, the IC50 ([1]; HCT-116, 48 h) was 3.72 µM, the GI50 ([1]; HCT-116, time 48 hrs) was 3.02 µM and the LC50 ([1]; HCT-116, time 48 hrs) was 4 µM. The TGI ([1]; HCT-116, time 48 hrs) was 13.2 µM, the IC50 ([2]; OVCAR-8, 48 h) was 4.79 µM and the GI50 ([2]; OVCAR-8, time 48 hrs) was 3.02 µM. It also gave a TGI ([2]; OVCAR-8, time 48 hrs) of 14.8 µM, a CC50 ([2]; OVCAR-8, time 48 hrs, read-out: LC50 (the source's name)) of 4 µM and an IC50 ([3]; NCI-H226, 48 h) of 25.1 µM. For the same compound, the GI50 ([3]; NCI-H226, time 48 hrs) was 10.5 µM, the TGI ([3]; NCI-H226, time 48 hrs) was 27.5 µM and the GI50 [4] was 5.13 µM. The IC50 ([5]; 48 h) was 3.39 µM, the GI50 ([5]; time 48 hrs) was 2.45 µM and the LC50 (50% lethal concentration) ([5]; time 48 hrs) was 4 µM. It also gave a TGI ([5]; time 48 hrs) of 7.41 µM, an IC50 ([6]; SNB-75, 48 h) of 11.2 µM and a GI50 ([6]; SNB-75, time 48 hrs) of 2.34 µM. The LC50 ([6]; SNB-75, time 48 hrs) was 4.18 µM, the TGI ([6]; SNB-75, time 48 hrs) was 11.5 µM and the TGI [7] was “inactive”. It also gave an IC50 ([7]; SK-MEL-28, 48 h) of 10 µM, a GI50 ([7]; SK-MEL-28, time 48 hrs) of 7.41 µM and an IC50 ([8]; 48 h) of 5.37 µM. It also gave a GI50 ([8]; time 48 hrs) of 3.63 µM, a TGI ([8]; time 48 hrs) of 100 µM and a CC50 [8, 15] of 4 µM. For the same compound, the IC50 ([9]; IGROV-1, 48 h) was 20.9 µM, the GI50 ([9]; IGROV-1, time 48 hrs) was 9.55 µM and the LC50 (concentration killing 50% of cells) ([9]; IGROV-1, time 48 hrs) was 4.08 µM. For the same compound, the TGI ([9]; IGROV-1, time 48 hrs) was 28.8 µM, the IC50 ([10]; 48 h) was 24.5 µM and the GI50 ([10]; time 48 hrs) was 8.32 µM. For the same compound, the TGI ([10]; time 48 hrs) was 23.4 µM, the CC50 [10, 15] was 4.22 µM and the GI50 [11] was 4.47 µM. It also gave an IC50 ([12]; NCI-H522, 48 h) of 9.55 µM, a GI50 ([12]; NCI-H522, time 48 hrs) of 3.02 µM and a TGI ([12]; NCI-H522, time 48 hrs) of 13.2 µM. It also gave a CC50 ([12]; NCI-H522, time 48 hrs, read-out: LC50 (the source's name)) of 4.15 µM, an IC50 ([13]; 48 h) of 27.5 µM and a GI50 ([13]; time 48 hrs) of 10.7 µM. The TGI ([13]; time 48 hrs) was 33.1 µM, the IC50 ([14]; RPMI-8226, 48 h) was 13.8 µM and the GI50 ([14]; RPMI-8226, time 48 hrs) was 5.5 µM. The TGI ([14]; RPMI-8226, time 48 hrs) was 64.6 µM and the CC50 ([14]; RPMI-8226, time 48 hrs, read-out: LC50 (the source's name)) was 4 µM.
